Results published in article PMC3933693, “Novel Inhibitors of Mitochondrial sn-Glycerol 3-phosphate Dehydrogenase” (PLoS ONE, 2014).

Legend:
mGPDH = target: T1, mGPDH (Rattus norvegicus, UniProt P35571); experiment: Superoxide/H2O2 production by mGPDH in isolated skeletal muscle mitochondria (Amplex UltraRed); format: biochemical; details: for mGPDH (% change from DMSO): primary screen, ∼2.5 µM, average of duplicates, 16.7 mM glycerol phosphate, no added calcium
T1 construct: Activity of mGPDH in frozen-thawed skeletal muscle mitochondria was measured; from tissue; host or cells: skeletal muscle mitochondria
T1 sequence (P35571 43-727): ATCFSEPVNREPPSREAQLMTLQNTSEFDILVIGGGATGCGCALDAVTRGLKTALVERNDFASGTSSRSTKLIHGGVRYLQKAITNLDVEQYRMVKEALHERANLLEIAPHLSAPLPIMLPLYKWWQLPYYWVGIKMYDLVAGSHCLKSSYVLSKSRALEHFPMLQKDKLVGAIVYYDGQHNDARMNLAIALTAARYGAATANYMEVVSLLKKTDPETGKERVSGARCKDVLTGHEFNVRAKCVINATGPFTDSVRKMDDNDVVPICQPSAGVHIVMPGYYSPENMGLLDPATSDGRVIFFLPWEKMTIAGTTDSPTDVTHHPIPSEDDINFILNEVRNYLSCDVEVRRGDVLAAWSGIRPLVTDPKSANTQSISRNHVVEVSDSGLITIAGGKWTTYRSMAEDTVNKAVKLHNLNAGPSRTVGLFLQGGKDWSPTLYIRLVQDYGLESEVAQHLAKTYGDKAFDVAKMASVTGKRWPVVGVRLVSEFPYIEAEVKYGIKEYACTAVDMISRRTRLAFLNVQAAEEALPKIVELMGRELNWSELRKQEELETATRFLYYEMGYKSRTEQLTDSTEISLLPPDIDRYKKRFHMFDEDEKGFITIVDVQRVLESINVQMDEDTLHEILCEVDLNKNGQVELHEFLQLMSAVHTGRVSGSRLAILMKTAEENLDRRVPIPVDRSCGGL

[1] = test system: flavin mononucleotide site of complex I (site IF) plus matrix NAD-linked dehydrogenases (site IF/DH); experiment: Site-specific H2O2 production from site IF/DH in skeletal muscle mitochondria; format: biochemical, rat; details: primary screen, ∼2.5 µM, average of duplicates
Method: (§1) Superoxide was measured as H2O2 after dismutation by endogenous or exogenous superoxide dismutase. Rates of total superoxide/H2O2 production were measured fluorimetrically using Amplex UltraRed in the presence of exogenous superoxide dismutase and horseradish peroxidase in a Varian Cary Eclipse fluorimeter as previously described. Rates of production from specific sites were determined as previously described using the following eight conditions: flavin mononucleotide site of complex I (site IF) plus matrix NAD-linked dehydrogenases (collectively "site IF/DH") with 5 mM glutamate, 5 mM malate, and 4 µM rotenone; ubiquinone-binding site of complex I (site IQ) with either 0.5 or 5 mM succinate; flavin site of complex II (site IIF) with either 15 µM palmitoylcarnitine, 2.5 µM antimycin A, and 2 µM myxothiazol or 0.5 mM succinate, 4 µM rotenone, 2.5 µM antimycin A, and 2 µM myxothiazol, [31]; mGPDH with 1.7 mM glycerol phosphate, 4 µM rotenone, 2.5 µM antimycin A, 2 µM myxothiazol, 1 mM malonate, and 250 nM free calcium; outer ubiquinone-binding site of complex III (site IIIQo) with either 0.5 or 5 mM succinate, 4 µM rotenone and 2.5 µM antimycin A [32]. Candidate small-molecule inhibitors were added prior to the start of measurements and H2O2 calibration curves were performed in the presence of tested compounds.
(§2) 3,200 compounds were tested initially at 2.5 µM (0.025% DMSO final) in duplicate on different plates against a panel of five distinct assays of site-specific superoxide/H2O2 production as described in the previous section with minor changes. […] Endpoint fluorescence was measured on a Perkin Elmer Victor V3 fluorescent plate reader. The fluorescence intensity of each well was normalized as % change from the average of eight DMSO controls on the same plate. Duplicate wells of each of four modulators of mitochondrial metabolism known to inhibit specific sites of superoxide/H2O2 production were included on each plate as positive controls and the resulting fluorescence levels set as −100% change from DMSO controls. Known inhibitors included 20 mM aspartate (for site IF/DH), 1 µM FCCP (for site IQ), 10 mM malonate (for site IIF), and 2 µM myxothiazol (for site IIIQo). The background fluorescence of the FCCP wells in the site IQ assay was used to normalize mGPDH plates run in parallel. To minimize position-dependent effects across each assay plate, Tukey’s two-way median polish was applied to fluorescence values after initial normalization, [36]. Tukey’s polish is an iterative subtraction of the median row and column values from each well’s given row or column. The procedure is repeated until sequential medians for each row and column are zero and positional gradients in fluorescence are eliminated.

[2] = target: T2, outer ubiquinone-binding site of complex III (site IIIQo) (Rattus norvegicus, UniProt P00159+P20788); experiment: Site-specific H2O2 production from site IIIQo in skeletal muscle mitochondria; format: biochemical; details: primary screen, ∼2.5 µM, average of duplicates; 5 mM succinate
T2 construct: from tissue; host or cells: skeletal muscle mitochondria
Method: as §1, §2

[3] = target: T3, flavin site of complex II (site IIF) (Rattus norvegicus, UniProt Q920L2); experiment: Site-specific H2O2 production from site IIF in skeletal muscle mitochondria; format: biochemical; details: primary screen, ∼2.5 µM, average of duplicates; palmitoylcarnitine
T3 construct: from tissue; host or cells: skeletal muscle mitochondria
Method: as §1, §2

[4] = test system: ubiquinone-binding site of complex I (site IQ); experiment: Site-specific H2O2 production from site IQ in skeletal muscle mitochondria; format: biochemical, rat; details: primary screen, ∼2.5 µM, average of duplicates; 5 mM succinate;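 also: H2O2 from superoxide detected by Amplex UltraRed fluorescence with added superoxide dismutase and horseradish peroxidase, endpoint read 30–40 min after substrate addition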
[5] = test system: skeletal muscle mitochondria; experiment: Mitochondrial membrane potential (ΔΨm, TMRM) powered by glutamate plus malate; format: biochemical, rat; details: primary screen, ∼2.5 µM, average of duplicates; glutamate and malate

T3 sequence (Q920L2 35-656): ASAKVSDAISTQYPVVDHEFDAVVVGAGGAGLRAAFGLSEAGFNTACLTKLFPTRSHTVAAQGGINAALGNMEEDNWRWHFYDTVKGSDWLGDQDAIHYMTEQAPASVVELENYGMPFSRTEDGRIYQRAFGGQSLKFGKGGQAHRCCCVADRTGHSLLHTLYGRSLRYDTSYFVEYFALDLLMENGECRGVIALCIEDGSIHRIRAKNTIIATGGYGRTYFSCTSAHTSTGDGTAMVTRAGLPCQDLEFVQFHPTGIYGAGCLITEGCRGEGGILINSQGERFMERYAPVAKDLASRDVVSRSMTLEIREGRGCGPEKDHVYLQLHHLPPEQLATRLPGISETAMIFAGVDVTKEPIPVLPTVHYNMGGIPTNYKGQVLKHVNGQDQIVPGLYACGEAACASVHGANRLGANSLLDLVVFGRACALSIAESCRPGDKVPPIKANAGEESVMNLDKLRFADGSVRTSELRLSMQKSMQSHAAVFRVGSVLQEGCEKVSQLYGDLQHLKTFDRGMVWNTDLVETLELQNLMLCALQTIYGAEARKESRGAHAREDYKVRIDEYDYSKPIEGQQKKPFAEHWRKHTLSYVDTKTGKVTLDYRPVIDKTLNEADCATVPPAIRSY
T3 sequence (P21913 31-282 partner): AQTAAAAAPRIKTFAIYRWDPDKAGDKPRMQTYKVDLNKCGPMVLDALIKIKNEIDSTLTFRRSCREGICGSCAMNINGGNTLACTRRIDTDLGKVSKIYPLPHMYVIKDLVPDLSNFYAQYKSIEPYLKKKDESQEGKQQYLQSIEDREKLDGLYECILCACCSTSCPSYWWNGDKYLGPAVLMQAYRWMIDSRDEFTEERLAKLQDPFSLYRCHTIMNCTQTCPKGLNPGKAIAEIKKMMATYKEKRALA
T3 sequence (Q641Z9 30-169 partner limits assumed): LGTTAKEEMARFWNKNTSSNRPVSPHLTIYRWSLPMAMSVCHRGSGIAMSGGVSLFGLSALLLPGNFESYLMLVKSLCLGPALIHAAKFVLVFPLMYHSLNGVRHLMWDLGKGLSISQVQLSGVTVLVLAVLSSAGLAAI
T3 sequence (Q6PCT8 57-159 partner): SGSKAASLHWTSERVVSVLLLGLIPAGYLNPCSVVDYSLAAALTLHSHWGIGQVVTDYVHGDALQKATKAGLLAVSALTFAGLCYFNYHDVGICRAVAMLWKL

O=C(CO)COP(=O)(O)O [DHAP, dihydroxyacetone phosphate, reference compound]
effect on the rate of H2O2 production from mGPDH (mGPDH; compared with glyceraldehyde 3-phosphate, Fig. 2A): less effective

Nc1cc(S(=O)(=O)c2ccc(O)c(N)c2)ccc1O [compound 5105145]
IF/DH (% change from DMSO) [1]: -62.0%
mGPDH (% change from DMSO) (mGPDH): -37.3%
IIIQo (% change from DMSO) [2]: -48.5%
IIF (% change from DMSO) [3]: -62.7%
IQ (% change from DMSO) [4]: -49.7%
ΔΨm (% change from DMSO) [5]: -1.2%

NC(=O)Cc1c[nH]c2cccc(O)c12 [compound 5106694]
IF/DH (% change from DMSO) [1]: -39.7%
mGPDH (% change from DMSO) (mGPDH): -32.1%
IIIQo (% change from DMSO) [2]: -48.1%
IIF (% change from DMSO) [3]: -58.5%
IQ (% change from DMSO) [4]: -49.2%
ΔΨm (% change from DMSO) [5]: 0.127%

O=C1c2ccccc2C(=O)N1CCc1c[nH]c2ccc(O)cc12 [compound 5106791]
IF/DH (% change from DMSO) [1]: -33.6%
mGPDH (% change from DMSO) (mGPDH): -16.2%
IIIQo (% change from DMSO) [2]: -35.4%
IIF (% change from DMSO) [3]: -42.5%
IQ (% change from DMSO) [4]: -44.7%
ΔΨm (% change from DMSO) [5]: 0.466%

COc1ccc(NCc2ccccc2)cc1 [compound 5107549]
IF/DH (% change from DMSO) [1]: -41.3%
mGPDH (% change from DMSO) (mGPDH): -28.0%
IIIQo (% change from DMSO) [2]: -6.9%
IIF (% change from DMSO) [3]: -44.6%
IQ (% change from DMSO) [4]: -27.5%
ΔΨm (% change from DMSO) [5]: 0.3%

O=[N+]([O-])c1ccc2[nH]c(-c3ccccc3)cc2c1 [compound 5107950]
IF/DH (% change from DMSO) [1]: -58.4%
mGPDH (% change from DMSO) (mGPDH): -19.8%
IIIQo (% change from DMSO) [2]: 46.2%
IIF (% change from DMSO) [3]: -18.1%
IQ (% change from DMSO) [4]: -70.5%
ΔΨm (% change from DMSO) [5]: -14.4%

CCCCc1c(C(=O)O)cc(C)cc1C(=O)O [compound 5119061]
IF/DH (% change from DMSO) [1]: -13.1%
mGPDH (% change from DMSO) (mGPDH): -10.0%
IIIQo (% change from DMSO) [2]: -6.2%
IIF (% change from DMSO) [3]: -5.7%
IQ (% change from DMSO) [4]: -6.2%
ΔΨm (% change from DMSO) [5]: 0.737%

Nc1ccc(-c2nc3ccc(N)cc3[nH]2)cc1 [compound 5137121]
IF/DH (% change from DMSO) [1]: -89.7%
mGPDH (% change from DMSO) (mGPDH): -72.6%
IIIQo (% change from DMSO) [2]: -73.9%
IIF (% change from DMSO) [3]: -106.6%
IQ (% change from DMSO) [4]: -61.6%
ΔΨm (% change from DMSO) [5]: 1.1%

CC(C)CSC(CC(=O)O)C(=O)O (stereo not shown) [compound 5152843]
IF/DH (% change from DMSO) [1]: -19.0%
mGPDH (% change from DMSO) (mGPDH): -10.7%
IIIQo (% change from DMSO) [2]: -15.7%
IIF (% change from DMSO) [3]: -7.8%
IQ (% change from DMSO) [4]: -6.2%
ΔΨm (% change from DMSO) [5]: -0.119%

O=S(=O)(Nc1ccc(O)c(Br)c1)c1ccc(Cl)cc1 [compound 5158529]
IF/DH (% change from DMSO) [1]: -54.3%
mGPDH (% change from DMSO) (mGPDH): -23.5%
IIIQo (% change from DMSO) [2]: -42.6%
IIF (% change from DMSO) [3]: -47.6%
IQ (% change from DMSO) [4]: -50.5%
ΔΨm (% change from DMSO) [5]: -0.4%

O=C1N=C(c2ccccc2)C(c2ccccc2)N1 (stereo not shown) [compound 5162292]
IF/DH (% change from DMSO) [1]: -7.5%
mGPDH (% change from DMSO) (mGPDH): -13.1%
IIIQo (% change from DMSO) [2]: -23.8%
IIF (% change from DMSO) [3]: -24.8%
IQ (% change from DMSO) [4]: -4.2%
ΔΨm (% change from DMSO) [5]: -2.7%

COc1ccc(NCCNc2ccc(OC)cc2)cc1 [compound 5174308]
IF/DH (% change from DMSO) [1]: -73.0%
mGPDH (% change from DMSO) (mGPDH): -37.5%
IIIQo (% change from DMSO) [2]: -30.1%
IIF (% change from DMSO) [3]: -50.8%
IQ (% change from DMSO) [4]: -49.0%
ΔΨm (% change from DMSO) [5]: 0.352%

Nc1ccccc1S(=O)(=O)Nc1cccc2cccnc12 [compound 5175136]
IF/DH (% change from DMSO) [1]: -42.5%
mGPDH (% change from DMSO) (mGPDH): -16.1%
IIIQo (% change from DMSO) [2]: 9.1%
IIF (% change from DMSO) [3]: -14.5%
IQ (% change from DMSO) [4]: -18.9%
ΔΨm (% change from DMSO) [5]: 0.113%

Nc1cc(C(=O)O)c(N)cc1C(=O)O [compound 5180162]
IF/DH (% change from DMSO) [1]: -5.6%
mGPDH (% change from DMSO) (mGPDH): -10.8%
IIIQo (% change from DMSO) [2]: -3.2%
IIF (% change from DMSO) [3]: -10.7%
IQ (% change from DMSO) [4]: -6.3%
ΔΨm (% change from DMSO) [5]: -0.24%

O=C(Cc1ccccc1)Nc1cc(C(=O)O)c(NC(=O)Cc2ccccc2)cc1C(=O)O [compound 5181020]
IF/DH (% change from DMSO) [1]: -40.9%
mGPDH (% change from DMSO) (mGPDH): -31.6%
IIIQo (% change from DMSO) [2]: -32.7%
IIF (% change from DMSO) [3]: -39.7%
IQ (% change from DMSO) [4]: -35.6%
ΔΨm (% change from DMSO) [5]: 0.05%

COc1ccc(O)c(CN2CCC(N3CCCCC3)CC2)c1 [compound 5410291]
IF/DH (% change from DMSO) [1]: -15.5%
mGPDH (% change from DMSO) (mGPDH): -18.0%
IIIQo (% change from DMSO) [2]: -19.0%
IQ (% change from DMSO) [4]: -18.2%
ΔΨm (% change from DMSO) [5]: -0.0836%

COc1cc(CN2CCOCC2)ccc1O [compound 5423875]
IF/DH (% change from DMSO) [1]: -12.7%
mGPDH (% change from DMSO) (mGPDH): -11.3%
IIIQo (% change from DMSO) [2]: -15.0%
IQ (% change from DMSO) [4]: -20.0%
ΔΨm (% change from DMSO) [5]: 0.5%

CCN1CCN(C/C=C/c2ccc(N(C)C)cc2)CC1 [compound 5424907]
IF/DH (% change from DMSO) [1]: -6.5%
mGPDH (% change from DMSO) (mGPDH): -13.4%
IIIQo (% change from DMSO) [2]: -5.7%
IQ (% change from DMSO) [4]: -2.9%
ΔΨm (% change from DMSO) [5]: 0.00666%
